For one data set, the target named is T1, mouse Nurr1 receptor (Mus musculus, UniProt Q06219).
T1 construct: a cell line (N2A) endogenously expressing the mouse Nurr1 receptor; host or cells: Neuro-2A (N2A) mouse neuroblastoma cells stably transfected with 8NBRE-luciferase
The data set can be described thus: In vitro activity on N2A cells (NBRE-luciferase reporter). Format: cell-based. Conditions: N2A-8NBRE cells, products incubated 24 hours. Here is the method: Evaluation of the In Vitro Activity on N2A Cells
• The activity of the compounds according to the invention was evaluated on a cell line (N2A) endogenously expressing the mouse Nurr1 receptor and stabily transfected with the NOT binding response element (NBRE) coupled to the luciferase reporter gene. The EC50 values are between 0.01 and 10 μM. The tests were carried out according to the procedure described below. • The Neuro-2A cell line comes from a standard commercial source (ATCC). The Neuro-2A clone was obtained from a spontaneous tumour originating from a mouse A albino strain by R. J. Klebe et al. This Neuro-2A line is subsequently stabily transfected with 8NBRE-luciferase. The N2A-8NBRE cells are cultured to confluence in 75 cm^2 culture flasks containing DMEM supplemented with 10% of foetal calf serum, 4.5 g/l of glucose and 0.4 mg/ml of geneticin. After one week of culture, the cells are recovered with 0.25% trypsin for 30 seconds and then resuspended in DMEM without phenol red, containing 4.5 g/l of glucose, 10% of Hyclone defatted serum, and deposited in white, transparent-bottom, 96-well plates. The cells are deposited at a rate of 60 000 per well in 75 μl for 24 hours before the addition of the products. The products were applied in 25 μl and incubated for a further 24 hours. On the day of measurement, an equivalent volume (100 μl) of Steadylite is added to each well, followed by a waiting period of 30 minutes in order to obtain complete lysis of the cells and maximum production of the signal. The plates are then measured in a microplate luminescence counter after having been sealed with an adhesive film. The products are prepared in the form of a stock solution at 10^−2 M, and then diluted in 100% of DMSO. Each product concentration is diluted beforehand in culture medium before incubation with the cells thus containing a final concentration of 0.625% of DMSO. […] It therefore appears that the compounds according to the invention have a NOT-modulating effect.

Molecules are shown by their SMILES.

As a reminder, the EC50 is the concentration that produces a half-maximal response. Broadly, the melting point is the temperature of the solid-liquid transition.

T1 sequence (Q06219 whole entry): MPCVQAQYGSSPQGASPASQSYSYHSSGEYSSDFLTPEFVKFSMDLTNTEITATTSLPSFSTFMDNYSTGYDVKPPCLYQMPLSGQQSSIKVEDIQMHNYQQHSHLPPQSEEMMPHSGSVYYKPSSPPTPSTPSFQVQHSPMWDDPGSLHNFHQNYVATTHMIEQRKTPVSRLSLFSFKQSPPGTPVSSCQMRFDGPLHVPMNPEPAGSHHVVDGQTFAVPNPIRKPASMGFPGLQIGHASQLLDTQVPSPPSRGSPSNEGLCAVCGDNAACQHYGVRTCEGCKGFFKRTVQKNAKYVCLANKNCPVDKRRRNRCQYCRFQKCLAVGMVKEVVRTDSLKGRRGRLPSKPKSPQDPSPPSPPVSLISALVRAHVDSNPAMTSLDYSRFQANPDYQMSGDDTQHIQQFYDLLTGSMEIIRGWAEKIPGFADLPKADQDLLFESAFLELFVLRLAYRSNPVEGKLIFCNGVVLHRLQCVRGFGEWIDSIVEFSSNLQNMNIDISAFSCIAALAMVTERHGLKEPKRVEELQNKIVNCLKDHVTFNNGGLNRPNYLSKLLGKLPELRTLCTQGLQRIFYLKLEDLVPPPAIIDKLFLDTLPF

`Cc1cc(-c2ccc(CO)cc2)cn2cc(-c3ccc4ccccc4c3)nc12` [Compound 10, [4-(8-methyl-2-naphthyl-2-ylimidazo[1,2-α]pyridin-6-yl)phenyl]methanol] had a half-maximal effective concentration (EC50) at mouse Nurr1 receptor of 68 nM.
Still for that read-out and setting: the value for `Cc1c(-c2ccccc2)nc2ccc(-c3cccc(CO)c3)cn12` [Compound 3, [3-(3-Methyl-2-phenylimidazo[1,2-α]pyridin-6-yl)phenyl]methanol] was 0.5 nM.
Turning to `Cc1cc(-c2cccc(CO)c2)cn2cc(-c3ccc(Cl)cc3)nc12` [Compound 1, {3-[2-(4-Chlorophenyl)-8-methylimidazo[1,2-α]pyridin-6-yl]phenyl}methanol], the melting point lay within 174 to 177 °C. Besides, at mouse Nurr1 receptor, the midpoint of the response, the EC50, lay at 5 nM.
Consider `Cc1c(-c2cccc(Cl)c2)nc2ccc(-c3ccc(F)c(CO)c3F)cn12` [Compound 19, {3-[2-(3-chlorophenyl)-3-methylimidazo[1,2-α]pyridin-6-yl]-2,6-difluorophenyl}methanol], for which, at mouse Nurr1 receptor, the EC50 was found to be 1.7 nM.
On the same count and under the same terms, the value for `COc1ccc(-c2nc3ccc(-c4cccc(C(C)(C)O)c4)cn3c2C)cc1` [Compound 15, 2-{3-[2-(4-methoxyphenyl)-3-methylimidazo[1,2-α]pyridin-6-yl]phenyl}propan-2-ol] was 161 nM.

The values are drawn from patent US8507520B2, “Polysubstituted 2-aryl-6-phenylimidazo[1,2-A]pyridine derivatives, and preparation and therapeutic use thereof” (Sanofi, priority 2008, dated 2013).
